Where a name gives a salt, the structure may show the parent alone. Read-outs that look alike come from different tables or passages of the source.
Assays:
[1] = test system: influenza virus neuraminidase; type: biochemical; conditions: substrate 75 μM, pH 6.5, 5 min at 37° C.
HA = conditions: cited from earlier work
[2] = cited from earlier work

| Compound | IC50 [1] [mM] | % Inhibition at 7 nM [1] [%] | further results |
| --- | --- | --- | --- |
| 3-[(Aminoiminomethyl)amino]-4-[(methylamino)carbonyl]benzoic acid hydrochloride, complex with water and methanol (4:4:4:1 and 5:5:5:1) [Example 53] | 0.005 | – | – |
| CC(=O)Nc1ccc(C(=O)O)cc1CC(O)CO (single isomer, unassigned; isomer a) [Example 35, 4-Acetylamino-3-(2',3'-dihydroxypropyl)benzoic acid, solvate with water [5:1] (Isomer A)] | 20 | 25 | – |
| CC(=O)Nc1ccc(C(=O)O)cc1CC(O)CO (single isomer, unassigned; isomer b) [Example 36, 4-Acetylamino-3-(2',3'-dihydroxypropyl)benzoic acid, solvate with water [4:3](Isomer B)] | – | 35 | – |
| CC(=O)N[C@H]1[C@H]([C@H](O)[C@H](O)CO)OC(C(=O)O)=C[C@@H]1O [DANA, 2-deoxy-2,3-didehydro-N-acetylneuraminic acid] | – | – | inhibition of HA in vitro (HA): inhibit; activity in vivo [2]: inactive |
| N=C(N)Nc1ccccc1 [Example 1, Phenylguanidine carbonate hydrate (2:1:1)] | – | 44 | – |
| N=C(N)NC(=N)Nc1ccccc1 [Example 3, 1-Phenylbiguanide] | 5.5 | 75 | – |
| CC(=O)Nc1ccc(C(=O)O)cc1 [Example 4, 4-Acetylaminobenzoic acid] | – | 39 | – |
| CC(=O)Nc1ccc(S(=O)(=O)O)cc1 [Example 6, 4-Acetylaminobenzenesulfonic acid hydrate (4:1)] | – | 30 | – |
| CC(=O)Nc1ccc(P(=O)(O)O)cc1 [Example 7, 4-Acetylaminophenylphosphonic acid] | – | 32 | – |
| O=C(O)c1ccc(NC(=O)C(F)(F)F)cc1 [Example 9, 4-(Trifluoroacetamido)benzoic acid] | – | – | % Inhibition ([1]; compound @ 3.3 mM): 56% |
| CC(=S)Nc1ccc(C(=O)O)cc1 [Example 10, 4-Thioacetamidobenzoic acid] | 1 | – | – |
| CS(=O)(=O)Nc1ccc(C(=O)O)cc1 [Example 16, 4-[(Methylsulfonyl)amino]benzoic acid] | – | 34 | – |
| N=C(N)Nc1cccc(C(=O)O)c1 [Example 17, 3-Guanidinobenzoic acid hydrochloride (2:1)] | 5 | – | – |
| N#CN=C(N)Nc1cccc(C(=O)O)c1 [Example 18, 3-[Amino(cyanoimino)methyl]aminobenzoic acid hydrate (4:1)] | – | 68 | – |
| N#CNc1cccc(C(=O)O)c1 [Example 21, 3-Cyanoaminobenzoic acid hydrate (5:1)] | 4 | – | – |
| N=C(N)Cc1cccc(C(=O)O)c1 [Example 23, 3-(2-Amino-2-imino)ethylbenzoic acid complex with water (5:1)] | – | – | % Inhibition ([1]; compound @ 3.5 mM): 22% |
| CC(=O)Nc1ccc(CC(=O)O)cc1 [Example 26, 4-(Acetamido)phenylacetic acid] | – | 15 | – |
| CNC(=O)c1ccc(C(=O)O)cc1 [Example 27, 4-(Methylaminocarbonyl)benzoic acid] | – | 27 | – |
| CC(=O)Nc1ccc(C(=O)O)cc1CO.[Na+].[OH-] [Example 31, 4-Acetylamino-3-hydroxymethylbenzoic acid, complex with NaOH [5:3]] | – | 31 | – |
| CC(=O)Nc1ccc(C(=O)O)cc1CCO [Example 33, β-(2-N-Acetylamino-5-carboxyphenyl)ethanol] | – | 42 | – |
| CC(=O)Nc1ccc(C(=O)O)cc1N [Example 37, 4-Acetylamino-3-aminobenzoic acid hydrochloride (2:1)] | 14 | 28 | – |
| CC(C)C(=O)Nc1ccc(C(=O)O)cc1NC(=N)N [Example 40, 3-[(Aminoiminomethyl)amino]-4-(2-methylpropionylamino)benzoic acid hydrate [2:1]] | 1 | – | – |
| CC(=O)Nc1ccc(C(=O)O)cc1C=NO [Example 42, 4-Acetylamino-3-[(hydroxylimino)methyl]benzoic acid hydrate (4:1)] | 5.5 | – | – |
| CS(=O)(=O)Nc1ccc(C(=O)O)cc1NC(=N)N [Example 43, 3-[(Aminoiminomethyl)amino]-4-[(methylsulfonyl)amino]benzoic acid, solvate with water (2:1)] | 0.1 | – | – |
| COc1ccc(C(=O)O)cc1NC(=N)N [Example 46, 3-[(Aminoiminomethyl)amino]-4-methoxybenzoic acid hydrochloride (1:1)] | – | 46 | – |
| N=C(N)Nc1cc(C(=O)O)ccc1O [Example 47, 3-[(Aminoiminomethyl)amino]-4-hydroxybenzoic acid hydrochloride (1:1)] | – | 33 | – |
| N=C(N)Nc1cc(NC(=N)N)cc(C(=O)O)c1 [Example 49, 3,5-Bis-[(aminoiminomethyl)amino]benzoic acid hydrochloride, solvate with ethanol (10:15:2)] | 1.5 | – | – |
| N=C(N)Nc1cc(N)cc(C(=O)O)c1 [Example 50, Sodium 3-amino-5-[(aminoimino)methyl]aminobenzoate hydrate] | 2 | – | – |
| N=C(N)Nc1cc(C=NO)cc(C(=O)O)c1 [Example 51, 3-[(Aminoiminomethyl)amino]-5-[(N-hydroxylimino)methyl]benzoic acid hydrate (4:3)] | 0.8 | – | – |
| CC(C)OC(C)C.CS(=O)(=O)Nc1c(CO)cc(C(=O)O)cc1NC(=N)N [Example 52, 3-(Aminoiminomethyl)amino-5-hydroxymethyl-4-(methylsulfonyl)aminobenzoic acid hydrate complex with diisopropyl ether (10:10:1)] | 2 | – | – |

— patent US5602277A, “Substituted benzene derivatives useful as neuraminidase inhibitors” (priority 1995, dated 1997)
